The record followed here is US20180303928A1 (priority 2017, published 2018).

Common to all, as to format: biochemical, influenza A(H7N2) virus
For one test, the system named is NA of the H7N2 viruses.
In test [1] the test system is NA enzymatic activity of A/chicken/NY/99.
Test [2] has as its system NA enzymatic activity of A/feline/NY/16.

In the case of `[H]/N=C(\N)N[C@H]1C=C(C(=O)O)O[C@@H]([C@H](OC)[C@H](O)CO)[C@@H]1NC(C)=O` [laninamivir], the “Susceptibility of the H7N2 viruses to NA inhibitors” value (“Susceptibility … to NA inhibitors” for short) with NA of the H7N2 viruses was “susceptible”. In addition, the “Sensitivity to NA inhibitors (50% inhibitory concentration (IC50) of the NA enzymatic activity)” value in test [1] and in test [2] was “sensitive” in each case.

For the compound `CCOC(=O)C1=C[C@@H](OC(CC)CC)[C@H](NC(C)=O)[C@@H](N)C1` [oseltamivir], in the test with NA of the H7N2 viruses, the “Susceptibility … to NA inhibitors” value is listed as “susceptible”. In addition, the “Sensitivity to NA inhibitors (50% inhibitory concentration (IC50) of the NA enzymatic activity)” value in test [1] and in test [2] was “sensitive” each time.

Regarding `CCC(CC)[C@H](NC(C)=O)[C@@H]1[C@H](O)[C@@H](C(=O)O)C[C@H]1N=C(N)N` [peramivir], the “Susceptibility … to NA inhibitors” value with NA of the H7N2 viruses is “susceptible”.

Regarding `CC(=O)N[C@H]1[C@H]([C@H](O)[C@H](O)CO)OC(C(=O)O)=C[C@@H]1N=C(N)N` [zanamivir], the “Susceptibility … to NA inhibitors” value in the test with NA of the H7N2 viruses is “susceptible”. The “Sensitivity to NA inhibitors (50% inhibitory concentration (IC50) of the NA enzymatic activity)” value in test [1] and in test [2] was “sensitive” throughout.
